These results are taken from US7713994B2 (Wyeth LLC, priority 2005, dated 2010).

The target in one assay is T1, cyclin D1/cdk 4 enzyme (Homo sapiens, UniProt P11802).
T1 construct: made in house; host or cells: Sf9 insect cells, recombinant baculovirus
The assay can be described thus: CDK4 ELISA kinase assay (phospho-Rb ser 795 detection). It is filed as biochemical. The method, boiled down:
(§1)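 Screening was done at 10 ug/ml compound. Each partially purified cyclin/CDK complex, produced in baculovirus-infected Sf9 cells, phosphorylated a coated GST-Rb C-terminal fragment with 200 μM ATP, and Ser795 phosphorylation was quantified by HRP-ELISA at 450 nm.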

The target in the next assay is T2, cyclin E/CDK2 enzyme (Homo sapiens, UniProt P24941).
T2 construct: made in house; host or cells: Sf9 insect cells, recombinant baculovirus
The assay can be described thus: CDK2 ELISA kinase assay (phospho-Rb ser 795 detection). The format is biochemical. Summed up: as §1
(ELISA stands for enzyme-linked immunosorbent assay.)

The target of another assay is T3, cyclin B/CDK1 enzyme (Homo sapiens, UniProt P06493).
T3 construct: purchased New England BioLabs; host or cells: Sf9 insect cells, recombinant baculovirus
T3 sequence (P06493 whole entry): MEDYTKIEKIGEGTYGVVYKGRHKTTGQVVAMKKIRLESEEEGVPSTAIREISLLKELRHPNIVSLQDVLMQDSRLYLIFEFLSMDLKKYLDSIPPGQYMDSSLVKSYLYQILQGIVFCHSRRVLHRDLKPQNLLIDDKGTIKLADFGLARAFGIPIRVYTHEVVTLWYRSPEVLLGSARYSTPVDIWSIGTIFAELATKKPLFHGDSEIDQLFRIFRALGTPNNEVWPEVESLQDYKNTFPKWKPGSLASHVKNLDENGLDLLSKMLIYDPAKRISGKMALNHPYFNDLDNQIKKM
T3 sequence (P14635 whole entry partner): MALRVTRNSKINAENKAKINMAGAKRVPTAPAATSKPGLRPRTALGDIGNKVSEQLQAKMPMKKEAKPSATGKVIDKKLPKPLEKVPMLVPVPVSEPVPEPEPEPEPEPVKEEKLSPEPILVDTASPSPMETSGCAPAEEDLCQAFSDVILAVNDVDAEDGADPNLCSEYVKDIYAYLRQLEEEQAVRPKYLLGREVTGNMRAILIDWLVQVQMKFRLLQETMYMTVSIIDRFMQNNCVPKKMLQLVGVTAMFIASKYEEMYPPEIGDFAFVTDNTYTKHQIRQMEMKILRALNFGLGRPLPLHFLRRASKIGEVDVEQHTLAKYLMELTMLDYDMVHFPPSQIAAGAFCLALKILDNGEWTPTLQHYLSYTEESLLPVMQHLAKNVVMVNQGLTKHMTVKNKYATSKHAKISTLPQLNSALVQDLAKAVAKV
The assay can be described thus: CDK1 ELISA kinase assay (phospho-Rb ser 795 detection). It is filed as biochemical. The method, boiled down:
as §1

Another assay deals with BT474. Nature of the assay: Cytotoxicity assay (SRB), BT474. The format is cell-based. The method, boiled down: (§2)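 Percentage survival is derived from SRB absorbance (540 nm) versus untreated cells. Exposures were 3 days, except 6 days for BT474, at 37 °C and 7% CO2.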
Another assay deals with HCT-116. The assay can be described thus: Cytotoxicity assay (SRB), HCT-116. It is filed as cell-based. The settings on record: Homo sapiens, HCT-116, 72 h, HCT116 cells, SRB, read-out: In Vitro Cellular Activity IC50 HCT116. Summed up: as §2
The test system of the next assay is LoVo. The assay can be described thus: Cytotoxicity assay (SRB), LoVo. The format is cell-based. The following applies: Homo sapiens, LoVo, 72 h, LoVo cells, SRB, read-out: In Vitro Cellular Activity IC50 LOVO. The method, boiled down:
as §2

Another assay concerns MCF-7. Nature of the assay: Cytotoxicity assay (SRB), MCF-7. The format is cell-based. The following applies: Homo sapiens, MCF7, 72 h, MCF-7 cells, SRB, read-out: In Vitro Cellular Activity IC50 MCF-7. The method, boiled down:
as §2

Setting [1] is: In Vitro Enzyme Assays, 200 μM ATP, read-out: CDK4 IC50.
Setting [2] is: In Vitro Enzyme Assays, read-out: CDK2 IC50.
[3] abbreviates: In Vitro Enzyme Assays, read-out: CDK1 IC50.
[4] abbreviates: Homo sapiens, BT-474, 144 h, BT474 cells, 6 days, SRB; read-out: In Vitro Cellular Activity IC50 BT474.
[5] abbreviates: In Vitro Enzyme Assay, cyclin D1/cdk 4, read-out: CDK4 IC50.
[6] abbreviates: In Vitro Enzyme Assay, cyclin E/CDK2, read-out: CDK2 IC50.
Where [7] appears, read: In Vitro Enzyme Assay, cyclin B/CDK1, read-out: CDK1 IC50.
Where [8] appears, read: Homo sapiens, BT-474, 144 h, BT474 cells, SRB, 6 days; read-out: In Vitro Cellular Activity IC50 BT474.

Molecules are shown by their SMILES. Like-named read-outs stand apart in the source and are kept apart here.

T1 sequence (P11802 whole entry, species assumed): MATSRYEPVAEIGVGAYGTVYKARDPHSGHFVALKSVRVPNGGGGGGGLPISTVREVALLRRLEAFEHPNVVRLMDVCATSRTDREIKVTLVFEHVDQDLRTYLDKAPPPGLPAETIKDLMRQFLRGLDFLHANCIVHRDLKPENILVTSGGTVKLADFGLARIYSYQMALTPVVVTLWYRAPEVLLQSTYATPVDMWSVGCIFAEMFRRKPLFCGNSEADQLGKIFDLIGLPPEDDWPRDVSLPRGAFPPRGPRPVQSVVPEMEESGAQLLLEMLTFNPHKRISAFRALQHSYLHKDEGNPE
T1 sequence (P24385 whole entry partner, species assumed): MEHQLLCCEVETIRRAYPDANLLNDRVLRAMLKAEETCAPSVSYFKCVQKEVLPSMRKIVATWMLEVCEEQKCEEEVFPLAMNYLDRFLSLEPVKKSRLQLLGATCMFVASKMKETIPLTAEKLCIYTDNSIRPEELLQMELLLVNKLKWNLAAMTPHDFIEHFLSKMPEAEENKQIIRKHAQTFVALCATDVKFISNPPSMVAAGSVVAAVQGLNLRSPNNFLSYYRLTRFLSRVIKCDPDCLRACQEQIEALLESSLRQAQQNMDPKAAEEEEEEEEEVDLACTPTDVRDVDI

For the compound `O=C1NC(=O)c2ccc(I)cc2/C1=C/Nc1ccc(N2CCC(C(=O)O)CC2)cc1` [Example 431, 1-(4-{[(Z)-(6-Iodo-1,3-dioxo-2,3-dihydroisoquinolin-4(1H)-ylidene)methyl]amino}phenyl)piperidine-4-carboxylic acid], the IC50 was determined as 1.3 µM on cyclin D1/cdk 4 enzyme (setting [1]); 4.1 µM on cyclin E/CDK2 enzyme (setting [2]); 8.6 µM on cyclin B/CDK1 enzyme (setting [3]); 6.4 µM with BT474 (setting [4]); 6.1 µM with HCT-116 (3 days); 5.8 µM in the assay with LoVo (3 days). Also, in the assay with MCF-7 (3 days), the IC50 stood at 8.8 µM.

For the compound `CCN(CC)CCn1ccc2cc(-c3ccc4c(c3)C(=CNc3ccc(N5CCN(C)CC5)cc3)C(=O)NC4=O)ccc21` [Example 852, 6-[1-(2-Diethylamino-ethyl)-1H-indol-5-yl]-4-{[4-(4-methyl-piperazin-1-yl)-phenylamino]-methylene}-4H-isoquinoline-1,3-dione], the 50% inhibitory concentration (IC50) at cyclin D1/cdk 4 enzyme (setting [5]) was 0.31 µM; at cyclin E/CDK2 enzyme (setting [6]) it was over 50 µM; at cyclin B/CDK1 enzyme (setting [7]), over 50 µM; in the assay on BT474 (setting [4]) it was over 50 µM; with HCT-116 (3 days), over 50 µM; in the assay on LoVo (3 days), over 50 µM. Further, the concentration for half-maximal inhibition (IC50) in the assay on MCF-7 (3 days) turned out to be 46.3 µM.

As for `NS(=O)(=O)c1ccc(CNC=C2C(=O)NC(=O)c3ccc(-c4cc[nH]c4)cc32)cc1` [Example 639, 4-({[1,3-Dioxo-6-(1H-pyrrol-3-yl)-2,3-dihydro-1H-isoquinolin-4-ylidenemethyl]-amino}-methyl)-benzenesulfonamide], the IC50 at cyclin D1/cdk 4 enzyme (setting [5]) was 9.2 µM; on cyclin E/CDK2 enzyme (setting [6]) it was 19.7 µM; at cyclin B/CDK1 enzyme (setting [7]), over 50 µM; in the assay with BT474 (setting [4]) it was 18.7 µM; in the assay on HCT-116 (3 days) it was over 50 µM; with LoVo (3 days), over 50 µM. Also, the IC50 in the assay with MCF-7 (3 days) stood at 25.8 µM.

`O=C1NC(=O)c2ccc(-c3ccc4[nH]ccc4c3)cc2C1=CNCc1ccc(O)c(O)c1` [Example 646, 4-[(3,4-Dihydroxy-benzylamino)-methylene]-6-(1H-indol-5-yl)-4H-isoquinoline-1,3-dione]: the half-inhibitory concentration (IC50) on cyclin D1/cdk 4 enzyme (setting [5]) worked out at 0.04 µM; at cyclin E/CDK2 enzyme (setting [6]) it was 2.9 µM; on cyclin B/CDK1 enzyme (setting [7]), 13.5 µM; with BT474 (setting [4]), 11.9 µM; in the assay on HCT-116 (3 days) it was 8.4 µM; with LoVo (3 days), 10.7 µM. Also, the IC50 in the assay on MCF-7 (3 days) worked out at 7.7 µM.

With `CN1CCN(c2ccc(N/C=C3\C(=O)NC(=O)c4ccc(-c5ccc(F)cc5)cc43)cc2)CC1` [Example 263, (4Z)-6-(4-Fluorophenyl)-4-({[4-(4-methylpiperazin-1-yl)phenyl]amino}methylene)-isoquinoline-1,3(2H,4H)-dione], the 50% inhibitory concentration (IC50) was 0.5 µM on cyclin D1/cdk 4 enzyme (setting [1]); over 50 µM at cyclin E/CDK2 enzyme (setting [2]); over 50 µM on cyclin B/CDK1 enzyme (setting [3]); 2.9 µM in the assay with BT474 (setting [8]); 1.3 µM in the assay with HCT-116 (three days); 2.9 µM in the assay with LoVo (three days). Also, in the assay with MCF-7 (three days), the IC50 came out at 3.1 µM.

On to `O=C1NC(=O)c2ccc(C=CCc3ccccc3)cc2C1=CNCc1ccc(O)c(O)c1` [Example 660, 4-[(3,4-Dihydroxy-benzylamino)-methylene]-6-(3-phenyl-propenyl)-4H-isoquinoline-1,3-dione], for which the IC50 on cyclin D1/cdk 4 enzyme (setting [5]) was 2.48 µM; on cyclin E/CDK2 enzyme (setting [6]) it was 33.9 µM; at cyclin B/CDK1 enzyme (setting [7]) it was over 50 µM; with BT474 (setting [4]), 10.4 µM; with HCT-116 (3 days), 7 µM; with LoVo (3 days) it was 7.6 µM. Further, the IC50 in the assay on MCF-7 (3 days) is 6.1 µM.

For the compound `O=C1NC(=O)c2ccc(-c3ccco3)cc2/C1=C/NCc1ccc(-c2ccc(F)cc2)c(O)c1` [Example 501, 4-{[(4′-Fluoro-2-hydroxy-biphenyl-4-ylmethyl)-amino]-methylene}-6-furan-2-yl-4H-isoquinoline-1,3-dione], the IC50 at cyclin D1/cdk 4 enzyme (setting [5]) was 0.03 µM; at cyclin E/CDK2 enzyme (setting [6]), 29.3 µM; at cyclin B/CDK1 enzyme (setting [7]) it was over 50 µM; in the assay on BT474 (setting [4]), 3.5 µM; with HCT-116 (3 days) it was 2.6 µM; with LoVo (3 days), 2.9 µM. Besides, in the assay on MCF-7 (3 days), the IC50 was found to be 1.4 µM.

As to `C=CCN1CCCC1c1ccc(N/C=C2\C(=O)NC(=O)c3ccc(-c4ccsc4)cc32)cc1` (stereo not drawn) [Example 420, 4-{[4-(1-Allyl-pyrrolidin-2-yl)-phenylamino]-methylene}-6-thiophen-3-yl-4H-isoquinoline-1,3-dione], the concentration for half-maximal inhibition (IC50) on cyclin D1/cdk 4 enzyme (setting [1]) was 0.11 µM; at cyclin E/CDK2 enzyme (setting [2]), over 50 µM; on cyclin B/CDK1 enzyme (setting [3]) it was over 50 µM; in the assay with BT474 (setting [4]) it was 7.7 µM; in the assay on HCT-116 (3 days) it was 4 µM; in the assay with LoVo (3 days), 16.2 µM. Further, the half-inhibitory concentration (IC50) in the assay with MCF-7 (3 days) is 36.8 µM.

As for `O=C1NC(=O)c2ccc(I)cc2/C1=C/Nc1ccc(N2CCNCC2)nc1` [Example 410, (4Z)-6-Iodo-4-{[(6-piperazin-1-ylpyridin-3-yl)amino]methylene}isoquinoline-1,3(2H,4H)-dione], the half-inhibitory concentration (IC50) on cyclin D1/cdk 4 enzyme (setting [1]) amounted to 2.1 µM; on cyclin E/CDK2 enzyme (setting [2]), 17.6 µM; on cyclin B/CDK1 enzyme (setting [3]), 25.3 µM; in the assay with BT474 (setting [4]), 2.3 µM; in the assay with HCT-116 (3 days), 2.8 µM; in the assay with LoVo (3 days), 6.8 µM. For the same compound, the IC50 with MCF-7 (3 days) turned out to be 5.1 µM.

For `O=C1NC(=O)c2ccc(Br)cc2/C1=C/NCCN1CCNCC1` [Example 307, (Z)-6-Bromo-4-((2-(piperazin-1-yl)ethylamino)methylene)isoquinoline-1,3(2H,4H)-dione], the IC50 at cyclin D1/cdk 4 enzyme (setting [1]) is 9.8 µM; on cyclin E/CDK2 enzyme (setting [2]), 38 µM; on cyclin B/CDK1 enzyme (setting [3]), over 50 µM; in the assay with BT474 (setting [8]) it was 46 µM; in the assay with HCT-116 (three days), 23 µM; in the assay on LoVo (three days), 28 µM. The half-maximal inhibitory concentration (IC50) in the assay with MCF-7 (three days) worked out at 25 µM.

`O=C1NC(=O)c2ccc(Br)cc2/C1=C/NCc1ccc(O)c(O)c1O` [Example 175]: the 50% inhibitory concentration (IC50) is 4.5 µM at cyclin D1/cdk 4 enzyme (setting [1]); 18.5 µM on cyclin E/CDK2 enzyme (setting [2]); 3.1 µM on cyclin B/CDK1 enzyme (setting [3]); over 50 µM in the assay with BT474 (setting [8]); 28 µM in the assay on HCT-116 (three days); over 50 µM in the assay on LoVo (three days). Besides, the 50% inhibitory concentration (IC50) in the assay on MCF-7 (three days) is over 50 µM.

For `O=C(/C=C\Cl)Nc1ccc(CN/C=C2\C(=O)NC(=O)c3ccc(I)cc32)cc1O` [Example 337, (2Z)-3-Chloro-N-[2-hydroxy-4-({[(Z)-(6-iodo-1,3-dioxo-2,3-dihydroisoquinolin-4(1H)-ylidene)methyl]amino}methyl)phenyl]acrylamide], the IC50 at cyclin D1/cdk 4 enzyme (setting [1]) amounted to 0.02 µM; at cyclin E/CDK2 enzyme (setting [2]), 1 µM; at cyclin B/CDK1 enzyme (setting [3]), 3.1 µM; in the assay on BT474 (setting [8]), 0.73 µM; in the assay on HCT-116 (three days), 0.67 µM; in the assay with LoVo (three days), 0.91 µM. Moreover, in the assay with MCF-7 (three days), the IC50 was 1.1 µM.

`CN(C)CCCc1ccc(N/C=C2\C(=O)NC(=O)c3ccc(Br)cc32)cc1` [Example 270, (4Z)-6-Bromo-4-[({4-[3-(dimethylamino)propyl]phenyl}amino)methylene]isoquinoline-1,3(2H,4H)-dione]: the IC50 on cyclin D1/cdk 4 enzyme (setting [1]) was 3 µM; at cyclin E/CDK2 enzyme (setting [2]) it was 38.8 µM; at cyclin B/CDK1 enzyme (setting [3]), over 50 µM; in the assay on BT474 (setting [8]), 27 µM; in the assay on HCT-116 (three days) it was 13 µM; with LoVo (three days), 24 µM. Further, the half-inhibitory concentration (IC50) in the assay with MCF-7 (three days) is 7.2 µM.

Turning to `CN1CCC(N2CCN(c3ccc(N/C=C4\C(=O)NC(=O)c5ccc(I)cc54)cc3)CC2)CC1` [Example 387, (4Z)-6-Iodo-4-[({4-[4-(1-methylpiperidin-4-yl)piperazin-1-yl]phenyl}amino)methylene]isoquinoline-1,3(2H,4H)-dione], the IC50 is 0.9 µM at cyclin D1/cdk 4 enzyme (setting [1]); over 50 µM on cyclin E/CDK2 enzyme (setting [2]); over 50 µM on cyclin B/CDK1 enzyme (setting [3]); 25 µM with BT474 (setting [8]); 7.7 µM in the assay on HCT-116 (three days); 33 µM with LoVo (three days). For the same compound, the 50% inhibitory concentration (IC50) in the assay with MCF-7 (three days) worked out at 24 µM.

Turning to `COc1cccc(-c2ccc3c(c2)/C(=C/Nc2ccc(CN4CCCCC4)cc2)C(=O)NC3=O)c1` [Example 117, (4Z)-6-(3-Methoxyphenyl)-4-({[4-(piperidin-1-ylmethyl)phenyl]amino}methylene)-isoquinoline-1,3(2H,4H)-dione], the IC50 at cyclin D1/cdk 4 enzyme (setting [1]) was 27.8 µM; on cyclin E/CDK2 enzyme (setting [2]), over 50 µM; at cyclin B/CDK1 enzyme (setting [3]), over 50 µM; with BT474 (setting [8]) it was 3 µM; in the assay on HCT-116 (three days) it was 1.4 µM; in the assay on LoVo (three days), 2.4 µM. Besides, in the assay on MCF-7 (three days), the IC50 amounted to 2.7 µM.

For orientation: IC50 means the point on the concentration scale where inhibition reaches its midpoint.
